Molecular target: T1, His-TtCbs1 (TtCbs1, cystathionine β-synthase) (Tetrahymena thermophila, UniProt I7M350)
T1 construct: gene TTHERM_00558300
T1 sequence (I7M350 1-500): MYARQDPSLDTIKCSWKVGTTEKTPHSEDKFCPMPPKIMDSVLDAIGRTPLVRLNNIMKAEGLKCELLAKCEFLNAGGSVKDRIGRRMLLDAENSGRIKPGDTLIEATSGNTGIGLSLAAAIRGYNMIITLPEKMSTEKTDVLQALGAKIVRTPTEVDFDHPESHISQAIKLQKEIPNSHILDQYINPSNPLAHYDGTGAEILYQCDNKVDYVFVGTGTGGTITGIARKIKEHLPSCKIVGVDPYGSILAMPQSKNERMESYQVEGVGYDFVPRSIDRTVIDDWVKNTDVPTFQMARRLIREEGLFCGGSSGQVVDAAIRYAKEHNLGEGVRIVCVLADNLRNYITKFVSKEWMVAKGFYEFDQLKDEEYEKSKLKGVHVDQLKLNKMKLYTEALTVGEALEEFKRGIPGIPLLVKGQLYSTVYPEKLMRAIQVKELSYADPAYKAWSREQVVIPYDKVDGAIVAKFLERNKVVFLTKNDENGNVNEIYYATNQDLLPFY
Assay: CdS quantum dot formation from enzymatically released H2S, UV-Vis and fluorescence
Assay type: biochemical
Conditions: 50 mM Tris-HCl pH 8.5, 37 °C, 0.1 mg/mL enzyme, 4 mM cysteine, 0.5 mM CdCl2; no signal without enzyme

SMILES: N[C@@H](CS)C(=O)O [L-cysteine]
- CdS quantum dot formation from enzymatically released H2S, UV-Vis and fluorescen: Cysteine, as a thiol compound, serves as a substrate for His-TtCbs1 to produce H2S
